From the NIST ThermoML archive (doi:10.1021/acs.jced.8b00492) come the findings set out here.

For data set [1] the following is noted: for surface tension liquid-gas: Ring tensiometer; for viscosity: 100 kPa, Liquid, Capillary tube (Ostwald / Ubbelohde) method.
The nature of data set [2]: mn = molality of the nth substance listed, in mol/kg. As to conditions: m2 = 0; for surface tension liquid-gas: Ring tensiometer; for viscosity / mass density / speed of sound: 100 kPa, Liquid; for viscosity: Capillary tube (Ostwald / Ubbelohde) method; for mass density: Vibrating tube method; for speed of sound: Frequency=3 MHz, Single path-length method.

± gives the expanded uncertainty stated by the source.

Take `O` [water]: the surface tension liquid-gas (as a rule, the force per length acting along the surface) in data set [1] (293.15 K) is 72.6 ± 0.9 mN/m; in data set [1] (303.15 K), 71.1 ± 0.9 mN/m; in data set [1] (313.15 K), 69.2 ± 0.9 mN/m; in data set [1] (323.15 K), 67.7 ± 0.9 mN/m. For the same compound, the viscosity (in general, the resistance of a fluid to flow) in data set [1] (293.15 K) was 0.993 ± 0.05 mPa·s; in data set [1] (303.15 K), 0.802 ± 0.05 mPa·s; in data set [1] (313.15 K), 0.661 ± 0.05 mPa·s; in data set [1] (323.15 K), 0.555 ± 0.05 mPa·s.

In the case of `O` [water] + C1N2CN3CN1CN(C2)C3, in data set [2] (293.15 K), the surface tension liquid-gas came out at 72.6 ± 0.9 mN/m and the viscosity was determined as 0.993 ± 0.05 mPa·s. Further, in data set [2] (303.15 K), the surface tension liquid-gas was determined as 71.1 ± 0.9 mN/m; the viscosity is given as 0.802 ± 0.05 mPa·s; the mass density – broadly, the mass of a sample divided by its volume – came to 995.9 ± 2 kg/m3. Also, in data set [2] (313.15 K), the surface tension liquid-gas was determined as 69.2 ± 0.9 mN/m; the viscosity was found to be 0.661 ± 0.05 mPa·s; the speed of sound (in general, how fast a sound wave travels through the sample) came to 1529.1 ± 0.7 m/s; the mass density was determined as 992.3 ± 2 kg/m3. Moreover, in data set [2] (323.15 K), the surface tension liquid-gas came to 67.7 ± 0.9 mN/m, the viscosity was determined as 0.555 ± 0.05 mPa·s and the speed of sound was 1541.5 ± 0.7 m/s.
